Where two headings read alike, the source gives them in different places.
Tests used:
collagen IV = conditions: mean of 12 healthy subjects, 4×2 g CHP per day over 14 days
Description: CHP was repeatedly administered over 14 days, using 4×2 g of CHP per day.

[1] = tested on: α-glutathione S transferase; conditions: mean of 12 healthy subjects, 4×2.0 g CHP/day over 14 days

With O=C(O)[C@@H]1C[C@@H](O)CN1 (relative stereo) [CHP, cis-hydroxy-L-proline] the “Concentration of collagen IV in serum, MEAN” value (from here on “Concentration of collagen IV”) (collagen IV; day 0) was 115.39, the “Concentration of collagen IV” value (collagen IV; day 7) was 93.03 and the “Concentration of collagen IV” value (collagen IV; day 13) was 99.79. The “Concentration of collagen IV” value (collagen IV; day 13.25) was 92.87, the “Concentration of collagen IV” value (collagen IV; day 14) was 97.77 and the “Concentration of collagen IV” value (collagen IV; day 17) was 93.45. The “Concentration of α-glutathione S transferase in serum, MEAN” value ([1]; day 0) was 0.46, the “Concentration of α-glutathione S transferase in serum, MEAN” value ([1]; day 7) was 0.37 and the “Concentration of α-glutathione S transferase in serum, MEAN” value ([1]; day 13) was 0.26. The “Concentration of α-glutathione S transferase in serum, MEAN” value ([1]; day 13.25) was 0.20, the “Concentration of α-glutathione S transferase in serum, MEAN” value ([1]; day 14) was 0.21 and the “Concentration of α-glutathione S transferase in serum, MEAN” value ([1]; day 17) was 0.18.
